Experimental data reported in ChEMBL document CHEMBL3763061, “Inhibition of cancer cell invasion by new ((3,4-dihydroxy benzylidene)hydrazinyl)pyridine-3-sulfonamide analogs” (2016).
Active and inactive are the calls of the source. No cut-off for these calls is given here.

Columns and labels:
[1] = tested on: MDA-MB-231; assay: Cytotoxicity against human MDA-MB-231 cells assessed as growth inhibition at 10 uM after 24 hrs by MTT assay relative to control; type: functional; conditions: MDA-MB-231, 24 h, read-out: GI
[2] = tested on: A-375; assay: Cytotoxicity against human A375 cells assessed as growth inhibition at 10 uM after 24 hrs by MTT assay relative to control; type: functional; conditions: A-375, 24 h, read-out: GI
[3] = tested on: MDA-MB-231; assay: Antimigratory activity against human MDA-MB-231 cells assessed as density of migrated cells in scratched areas by wound scratch assay; type: functional, cell-based
[4] = tested on: A-375; assay: Inhibition of N-cadherin expression in human A375 cells; type: functional, cell-based
[5] = tested on: A-375; assay: Inhibition of vimentin expression in human A375 cells; type: functional, cell-based
[6] = tested on: A-375; assay: Antiinvasive activity against human A375 cells assessed as inhibition of tumor invasion by transwell invasion assay; type: functional, cell-based
[7] = tested on: MDA-MB-231; assay: Antiinvasive activity against human MDA-MB-231 assessed as inhibition of tumor invasion cells by transwell invasion assay; type: functional, cell-based
[8] = tested on: A-375; assay: Antimigratory activity against human A375 cells assessed as inhibition of cell migration by wound scratch assay; type: functional, cell-based
[9] = tested on: A-375; assay: Inhibition of alpha-smooth muscle actin expression in human A375 cells; type: functional, cell-based
[10] = tested on: MDA-MB-231; assay: Inhibition of collagen expression in human MDA-MB-231 cells; type: functional, cell-based
[11] = tested on: MDA-MB-231; assay: Inhibition of alpha-smooth muscle actin expression in human MDA-MB-231 cells; type: functional, cell-based
[12] = tested on: MDA-MB-231; assay: Inhibition of N-cadherin expression in human MDA-MB-231 cells; type: functional, cell-based
[13] = tested on: A-375; assay: Inhibition of fibronectin expression in human A375 cells; type: functional, cell-based
[14] = tested on: MDA-MB-231; assay: Inhibition of vimentin expression in human MDA-MB-231 cells; type: functional, cell-based
[15] = tested on: A-375; assay: Inhibition of collagen expression in human A375 cells; type: functional, cell-based
[16] = tested on: MDA-MB-231; assay: Inhibition of fibronectin expression in human MDA-MB-231 cells; type: functional, cell-based
[17] = tested on: A-375; assay: Inhibition of Rab27a expression in human A375 cells; type: functional, cell-based
[18] = tested on: MDA-MB-231; assay: Inhibition of Rab27a expression in human MDA-MB-231 cells; type: functional, cell-based

## CCOC(=O)CN(C)S(=O)(=O)c1ccc(N/N=C/c2ccc(O)c(O)c2)nc1
[1]
  inhibition of growth at 10 µM: 0.97%
[2]
  inhibition of growth at 10 µM: -13.7%

## O=S(=O)(Nc1ccc(O)cc1)c1ccc(N/N=C/c2ccc(O)c(O)c2)nc1
[1]
  inhibition of growth at 10 µM: -1.92%
[2]
  inhibition of growth at 10 µM: -15.1%

## COCCNS(=O)(=O)c1ccc(N/N=C/c2ccc(O)c(O)c2)nc1
[1]
  inhibition of growth at 10 µM: -9.95%
[2]
  inhibition of growth at 10 µM: -11.4%

## O=S(=O)(c1ccc(N/N=C/c2ccc(O)c(O)c2)nc1)N1CCCCC1
[1]
  inhibition of growth at 10 µM: -15.6%
[2]
  inhibition of growth at 10 µM: 5.06%
[3]
  Activity: Active

## O=S(=O)(NCc1cccc2ccccc12)c1ccc(N/N=C/c2ccc(O)c(O)c2)nc1
[1]
  inhibition of growth at 10 µM: -21%
[2]
  inhibition of growth at 10 µM: -13.8%

## O=S(=O)(c1ccc(N/N=C/c2ccc(O)c(O)c2)nc1)N1CCc2ccccc2C1
[4]
  inhibition: inactive
[5]
  inhibition: Active
[6]
  inhibition: inactive
[7]
  inhibition: inactive
[8]
  inhibition: inactive
[9]
  inhibition: inactive
[1]
  inhibition of growth at 10 µM: 14.9%
[10]
  inhibition: inactive
[11]
  inhibition: inactive
[2]
  inhibition of growth at 10 µM: 8.41%
[12]
  inhibition: inactive
[13]
  inhibition: inactive
[14]
  inhibition: Active
[15]
  inhibition: inactive
[3]
  Activity: inactive
[16]
  inhibition: inactive

## O=S(=O)(c1ccc(N/N=C/c2ccc(O)c(O)c2)nc1)N1CCC(O)CC1
[1]
  inhibition of growth at 10 µM: -15.8%
[2]
  inhibition of growth at 10 µM: -14.1%

## CN(C)S(=O)(=O)c1ccc(N/N=C/c2ccc(O)c(O)c2)nc1
[1]
  inhibition of growth at 10 µM: 4.81%
[2]
  inhibition of growth at 10 µM: 1.44%

## CN1CCN(S(=O)(=O)c2ccc(N/N=C/c3ccc(O)c(O)c3)nc2)CC1
[1]
  inhibition of growth at 10 µM: 2.1%
[2]
  inhibition of growth at 10 µM: 1.29%

## C[C@@H](NS(=O)(=O)c1ccc(N/N=C/c2ccc(O)c(O)c2)nc1)C1CCCCC1
[1]
  inhibition of growth at 10 µM: -25.8%
[2]
  inhibition of growth at 10 µM: 3.45%

## O=S(=O)(c1ccc(N/N=C/c2ccc(O)c(O)c2)nc1)N1CCOCC1
[1]
  inhibition of growth at 10 µM: -5.98%
[2]
  inhibition of growth at 10 µM: -9.25%

## O=S(=O)(Nc1cccc(Cl)c1)c1ccc(N/N=C/c2ccc(O)c(O)c2)nc1
[4]
  inhibition: Active
[17]
  inhibition: Active
[18]
  inhibition: Active
[5]
  inhibition: Active
[6]
  inhibition: Active
[7]
  inhibition: Active
[8]
  inhibition: Active
[9]
  inhibition: inactive
[1]
  inhibition of growth at 10 µM: 26.3%
[10]
  inhibition: inactive
[11]
  inhibition: inactive
[2]
  inhibition of growth at 10 µM: 71.7%
[12]
  inhibition: Active
[13]
  inhibition: inactive
[14]
  inhibition: Active
[15]
  inhibition: inactive
[3]
  Activity: Active
[16]
  inhibition: inactive

## O=S(=O)(c1ccc(N/N=C/c2ccc(O)c(O)c2)nc1)N1CCCC1
[1]
  inhibition of growth at 10 µM: -13.6%
[2]
  inhibition of growth at 10 µM: -2.01%
[3]
  Activity: Active

## O=S(=O)(Nc1cc(Cl)ccc1O)c1ccc(N/N=C/c2ccc(O)c(O)c2)nc1
[1]
  inhibition of growth at 10 µM: 7.47%
[2]
  inhibition of growth at 10 µM: -3.03%

## CN(Cc1ccccc1)S(=O)(=O)c1ccc(N/N=C/c2ccc(O)c(O)c2)nc1
[4]
  inhibition: Active
[17]
  inhibition: Active
[18]
  inhibition: Active
[5]
  inhibition: Active
[6]
  inhibition: Active
[7]
  inhibition: Active
[8]
  inhibition: Active
[9]
  inhibition: Active
[1]
  inhibition of growth at 10 µM: 24.6%
[10]
  inhibition: Active
[11]
  inhibition: Active
[2]
  inhibition of growth at 10 µM: 49.4%
[12]
  inhibition: Active
[13]
  inhibition: Active
[14]
  inhibition: Active
[15]
  inhibition: Active
[3]
  Activity: Active
[16]
  inhibition: Active
